Reference: ChEMBL document CHEMBL6121016, “Design, Synthesis, and Biological Evaluation of 1,3,4-Thiadiazole Derivatives as Novel Potent Peptide Deformylase Inhibitors for Combating Drug-Resistant Gram-Positive and -Negative Bacteria” (J Med Chem, 2025)
Values after ≈ are worked out from the molar mass of the structure shown. Active and inactive are the calls of the source. No cut-off for these calls is given here.

Experiments:
Staphylococcus aureus [1] = test: Antibacterial activity against methicillin-resistant Staphylococcus aureus ATCC 33591 after 16 to 18 hrs by broth microdilution method; type: functional; details: time 16-18 hrs
Staphylococcus aureus [2] = test: Antibacterial activity against methicillin-susceptible Staphylococcus aureus ATCC 29213 after 16 to 18 hrs by broth microdilution method; type: functional; details: time 16-18 hrs
Staphylococcus aureus [3] = test: Antibacterial activity against methicillin-susceptible Staphylococcus aureus ATCC 25923 after 16 to 18 hrs by broth microdilution method; type: functional; details: time 16-18 hrs
Staphylococcus aureus [4] = test: Antibacterial activity against methicillin-susceptible Staphylococcus aureus ATCC 13709 after 16 to 18 hrs by broth microdilution method; type: functional; details: time 16-18 hrs
[5] = system: Staphylococcus epidermidis; test: Antibacterial activity against Staphylococcus epidermidis after 16 to 18 hrs by broth microdilution method; type: functional; details: time 16-18 hrs
Escherichia coli [6] = test: Antibacterial activity against Escherichia coli ATCC 25922 after 16 to 18 hrs by broth microdilution method; type: functional; details: time 16-18 hrs
Klebsiella pneumoniae [7] = test: Antibacterial activity against Klebsiella pneumoniae CICC 21611 after 16 to 18 hrs by broth microdilution method; type: functional; details: time 16-18 hrs
Acinetobacter baumannii [8] = test: Antibacterial activity against drug-resistant Acinetobacter baumannii Bio 53272 after 16 to 18 hrs by broth microdilution method; type: functional; details: time 16-18 hrs
Acinetobacter baumannii [9] = test: Antibacterial activity against Acinetobacter baumannii Bio 53272 after 16 to 18 hrs by broth microdilution method; type: functional; details: time 16-18 hrs
Acinetobacter baumannii [10] = test: Antibacterial activity against Acinetobacter baumannii Bio 24253 after 16 to 18 hrs by broth microdilution method; type: functional; details: time 16-18 hrs
Acinetobacter baumannii [11] = test: Antibacterial activity against Acinetobacter baumannii Bio 69680 after 16 to 18 hrs by broth microdilution method; type: functional; details: time 16-18 hrs
Acinetobacter baumannii [12] = test: Antibacterial activity against Acinetobacter baumannii Bio 120982 after 16 to 18 hrs by broth microdilution method; type: functional; details: time 16-18 hrs
Klebsiella pneumoniae [13] = test: Antibacterial activity against Klebsiella pneumoniae CICC 21092 after 16 to 18 hrs by broth microdilution method; type: functional; details: time 16-18 hrs
Klebsiella pneumoniae [14] = test: Antibacterial activity against Klebsiella pneumoniae CICC 20093 after 16 to 18 hrs by broth microdilution method; type: functional; details: time 16-18 hrs
Escherichia coli [15] = test: Antibacterial activity against Escherichia coli ATCC 10663 after 16 to 18 hrs by broth microdilution method; type: functional; details: time 16-18 hrs
Escherichia coli [16] = test: Antibacterial activity against Escherichia coli ATCC 10661 after 16 to 18 hrs by broth microdilution method; type: functional; details: time 16-18 hrs
[17] = Cytotoxicity against human HEK293T cells assessed as cell viability at 3.125 to 100 uM incubated for 24 hrs by MTT assay; type: toxicity, cell-based, HEK-293T
[18] = Cytotoxicity against human HeLa cells assessed as cell viability at 3.125 to 100 uM incubated for 24 hrs by MTT assay; type: toxicity, cell-based
[19] = Aqueous solubility of compound at 0.9% aqueous NaCl solution incubated for 2 hrs by UV spectrophotometry analysis; type: physicochemical
Escherichia coli [20] = test: Potency index, ratio of LBM415 MIC to test compound MIC for antibacterial activity against Escherichia coli after 16 to 18 hrs by broth microdilution method; type: functional; details: time 16-18 hrs
Cell membrane = test: Induction of cell membrane disruption in Acinetobacter baumannii assessed as outer membrane integrity by NucGreen/EthD-III costain fluorescent assay; type: subcellular
Acinetobacter baumannii [21] = test: Induction of morphological changes in Acinetobacter baumannii Bio 53272 assessed as increased wrinkles at 8 times of MIC incubated for 4 hrs by Field emission scanning electron microscopic analysis; type: functional, organism-based
[22] = Methemoglobin toxicity in human blood at 500 uM incubated for 6 hrs by MetHb content assay; type: tissue-based
Staphylococcus aureus [23] = test: Anti-biofilm activity against methicillin-resistant Staphylococcus aureus assessed as growth inhibition at 0.031 microg/ml incubated for 24 hrs by microplate reader analysis relative to control; type: functional
Acinetobacter baumannii [24] = test: Anti-biofilm activity against of Acinetobacter baumannii assessed as growth inhibition at 2 microg/ml incubated for 24 hrs by microplate reader analysis relative to control; type: functional
Acinetobacter baumannii [25] = test: Anti-biofilm activity against Acinetobacter baumannii at 0.5 to 64 microg/ml incubated for 24 hrs by microplate reader analysis; type: functional; details: dose 0.5-64 µg/ml, at 0.5 to 64 µg/mL
Acinetobacter baumannii [26] = test: Anti-biofilm activity against Acinetobacter baumannii assessed as growth inhibition at 32 microg/ml incubated for 24 hrs by microplate reader analysis relative to control; type: functional
Peptide deformylase [27] = molecular target: T1, Peptide deformylase (Staphylococcus aureus, UniProt P68826); test: Inhibition of Staphylococcus aureus PDF-Ni assessed as enzyme activity incubated for 30 min by fluorescamine method
T1 sequence (P68826 whole entry): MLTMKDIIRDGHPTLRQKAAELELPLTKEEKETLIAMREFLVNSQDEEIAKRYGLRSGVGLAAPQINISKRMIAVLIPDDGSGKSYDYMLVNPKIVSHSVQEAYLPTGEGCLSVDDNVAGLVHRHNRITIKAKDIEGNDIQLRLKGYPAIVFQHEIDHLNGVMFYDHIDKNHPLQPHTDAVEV

Peptide deformylase [28] = molecular target: T2, Peptide deformylase (Escherichia coli, UniProt Q9JN24); test: Inhibition of Escherichia coli PDF-Ni assessed as enzyme activity incubated for 30 min by fluorescamine method
T2 sequence (Q9JN24 whole entry): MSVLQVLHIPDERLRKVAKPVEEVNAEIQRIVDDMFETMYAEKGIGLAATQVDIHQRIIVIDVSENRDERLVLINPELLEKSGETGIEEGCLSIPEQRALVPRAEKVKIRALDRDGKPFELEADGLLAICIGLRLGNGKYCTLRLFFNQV

[29] = Acute toxicity in KM mouse infected with drug-resistant Acinetobacter baumannii assessed as survival rate at 40 mg/kg; type: organism-based; details: in vivo
Acinetobacter baumannii [30] = test: In vivo anti-bacterial activity against drug-resistant Acinetobacter baumannii infected MK mouse; type: functional
[31] = Acute toxicity in KM mouse infected with drug-resistant Acinetobacter baumannii assessed as pathological changes in liver at 40 mg/kg by HE staining based analysis; type: organism-based; details: in vivo
[32] = Acute toxicity in KM mouse infected with drug-resistant Acinetobacter baumannii assessed as pathological changes in lungs at 40 mg/kg by HE staining based analysis; type: organism-based; details: in vivo
[33] = Acute toxicity in KM mouse infected with drug-resistant Acinetobacter baumannii assessed as pathological changes in kidney at 40 mg/kg by HE staining based analysis; type: organism-based; details: in vivo
[34] = Acute toxicity in normal mouse assessed as death at 200 mg/kg, iv observed for 14 days; type: organism-based; details: in vivo, 336 h, time 14 day
[35] = Acute toxicity in normal mouse assessed as death at 400 mg/kg, iv observed for 14 days; type: organism-based; details: in vivo, 336 h, time 14 day
Staphylococcus aureus [36] = test: Bactericidal activity against methicillin-resistant Staphylococcus aureus assessed as bacteriostatic efficiency at 0.25 microg/mL incubated for 24 hrs by time killing analysis relative to control; type: functional; details: dose 0.25 µg/ml
Acinetobacter baumannii [37] = test: Bactericidal activity against drug-resistant Acinetobacter baumannii assessed as bacteriostatic efficiency measured after 0 to 24 hrs by time killing analysis; type: functional, organism-based; details: dose 0.5-2 µg/ml, time 0-24 hrs
Acinetobacter baumannii [38] = test: Bactericidal activity against drug-resistant Acinetobacter baumannii assessed as bacteriostatic efficiency at 2 microg/mL measured within 24 hrs by time killing analysis relative to control; type: functional, organism-based; details: dose 2.0 µg/ml
Acinetobacter baumannii [39] = test: In vivo anti-bacterial activity against drug-resistant Acinetobacter baumannii infected MK mouse assessed as pathological changes of organs at 40 mg/kg; type: functional, organism-based
[40] = Acute toxicity in normal mouse assessed as aberrant behaviors at 200 mg/kg, iv observed for 14 days; type: organism-based; details: in vivo, 336 h, time 14 day

Compound: CCCC[C@H](CN(O)C=O)C(=O)N1CCC[C@H]1c1nnc(-c2cccs2)s1
- MIC (Staphylococcus aureus [1]): 0.125 µg/mL (≈ 0.306 µM)
- MIC (Staphylococcus aureus [2]): 0.25 µg/mL (≈ 0.612 µM)
- MIC (Staphylococcus aureus [3]): 0.25 µg/mL (≈ 0.612 µM)
- MIC (Staphylococcus aureus [4]): 0.25 µg/mL (≈ 0.612 µM)
- MIC [5]: 0.125 µg/mL (≈ 0.306 µM)
- MIC (Escherichia coli [6]): 2 µg/mL (≈ 4.9 µM)
- MIC (Klebsiella pneumoniae [7]): 8 µg/mL (≈ 19.6 µM)
- MIC (Acinetobacter baumannii [8]): 0.5 µg/mL (≈ 1.22 µM)
- MIC (Acinetobacter baumannii [9]): 0.5 µg/mL (≈ 1.22 µM)
- MIC (Acinetobacter baumannii [10]): 4 µg/mL (≈ 9.79 µM)
- MIC (Acinetobacter baumannii [11]): 4 µg/mL (≈ 9.79 µM)
- MIC (Acinetobacter baumannii [12]): 4 µg/mL (≈ 9.79 µM)
- MIC (Klebsiella pneumoniae [13]): 16 µg/mL (≈ 39.2 µM)
- MIC (Klebsiella pneumoniae [14]): 16 µg/mL (≈ 39.2 µM)
- MIC (Escherichia coli [15]): 8 µg/mL (≈ 19.6 µM)
- MIC (Escherichia coli [16]): 4 µg/mL (≈ 9.79 µM)
- IC50 at 24 h [17]: > 100000 nM
- IC50 at 24 h [18]: > 100000 nM
- solubility at 2 h [19]: 2600 µg/mL (≈ 6360 µM)
- Ratio (Escherichia coli [20]): >16
- Activity (Cell membrane): Active
- Activity (Acinetobacter baumannii [21]): Active
- Activity [22]: Toxic
- inhibition at 0.031 µg/mL (Staphylococcus aureus [23]): 40%
- inhibition at 2 µg/mL (Acinetobacter baumannii [24]): 50%
- Activity (Acinetobacter baumannii [25]): 7.1%
- inhibition at 32 µg/mL (Acinetobacter baumannii [26]): 70%
- IC50 (Peptide deformylase [27]): 2.5 nM
- IC50 (Peptide deformylase [28]): 10.6 nM
- Activity [29]: Non-toxic
- ED50 (Acinetobacter baumannii [30]): 30.4 mg/kg
- Activity [31]: Non-toxic
- Activity [32]: Non-toxic
- Activity [33]: Non-toxic
- Activity [34]: Non-toxic
- Activity [35]: Non-toxic
- Activity (Staphylococcus aureus [36]): 100%
- Activity (Acinetobacter baumannii [37]): Dose-dependent-effect
- Activity (Acinetobacter baumannii [38]): Active
- Activity (Acinetobacter baumannii [39]): inactive
- Activity [40]: Non-toxic
